Data: ChEMBL document CHEMBL3885861, “Open TG-GATES”

Species on record: Rattus norvegicus
Experiment: Open TG-GATES - Regimen: Single
Type: toxicity, organism-based, Sprague-Dawley
Set-up: regimen Single, gender Male, age 6 weeks
Details: in vivo, po, 150 mg/kg, route gavage, dose level Middle; for APTT / Bas / Eos / Fbg / Hb / Ht / Lym / MCH / MCHC / MCV / Mono / Neu / PT / Plat / RBC / Ret / WBC: tissue Blood; for KIDNEY_L / KIDNEY_R / KIDNEY_TOTAL: tissue Kidney; for LIVER: tissue Liver; for A/G / ALP / ALT / AST / BUN / CRE / Ca / Cl / DBIL / GLC / IP / K / LDH / Na / PL / RALB / TBIL / TC / TG / TP / gamma-GTP: tissue Plasma

Work on `CC(=O)Oc1cc(C(C)C)c(OCCN(C)C)cc1C` [MOXISYLYTE] yielded a TERMINAL_BW (3 h) of 205.7 g, an APTT (3 h) of 22.9 s and a Bas (3 h) of 0%. For the same compound, the Eos (3 h) was 1%, the Fbg (3 h) was 293 mg/dL and the Hb (3 h) was 13.5 g/dL. It also gave a Ht (3 h) of 39.8%, a Lym (3 h) of 75% and an MCH (3 h) of 21.3 pg. It also gave an MCHC (3 h) of 33.8%, an MCV (3 h) of 62.8 fL and a Mono (3 h) of 1.6%. For the same compound, the Neu (3 h) was 21.8%, the PT (3 h) was 15.9 s and the Plat (3 h) was 112.4 x10_4/uL. For the same compound, the RBC (3 h) was 634.4 x10_4/ul, the Ret (3 h) was 7.5% and the WBC (3 h) was 68.3 x10_2/uL. It also gave a KIDNEY_L (3 h) of 0.9 g, a KIDNEY_R (3 h) of 0.9 g and a KIDNEY_TOTAL (3 h) of 1.8 g. It also gave an LIVER (3 h) of 9.3 g, an A/G (3 h) of 1.3 and an ALP (3 h) of 1569.2 IU/L. It also gave an ALT (3 h) of 44 IU/L, an AST (3 h) of 81.4 IU/L and a BUN (3 h) of 13.2 mg/dL. It also gave a CRE (3 h) of 0.2 mg/dL, a Ca (3 h) of 10.5 mg/dL and a Cl (3 h) of 107.8 meq/L. It also gave a DBIL (3 h) of 0.004 mg/dL, a GLC (3 h) of 194 mg/dL and an IP (3 h) of 9.3 mg/dL. For the same compound, the K (3 h) was 4.2 meq/L, the LDH (3 h) was 315.8 IU/L and the Na (3 h) was 142 meq/L. The PL (3 h) was 128.4 mg/dL, the RALB (3 h) was 3.1 g/dL and the TBIL (3 h) was 0.03 mg/dL. It also gave a TC (3 h) of 75.8 mg/dL, a TG (3 h) of 28.8 mg/dL and a TP (3 h) of 5.4 g/dL. The gamma-GTP (3 h) was 1.2 IU/L, the TERMINAL_BW (6 h) was 206.6 g and the APTT (6 h) was 21.8 s. The Bas (6 h) was 0%, the Eos (6 h) was 1% and the Fbg (6 h) was 313.2 mg/dL. The Hb (6 h) was 13.3 g/dL, the Ht (6 h) was 38.6% and the Lym (6 h) was 72%. The MCH (6 h) was 20.8 pg, the MCHC (6 h) was 34.4% and the MCV (6 h) was 60.3 fL. For the same compound, the Mono (6 h) was 2.2%, the Neu (6 h) was 23.8% and the PT (6 h) was 15.8 s. For the same compound, the Plat (6 h) was 129.5 x10_4/uL, the RBC (6 h) was 641.2 x10_4/ul and the Ret (6 h) was 7.2%. It also gave a WBC (6 h) of 67.7 x10_2/uL, a KIDNEY_L (6 h) of 0.9 g and a KIDNEY_R (6 h) of 0.9 g. It also gave a KIDNEY_TOTAL (6 h) of 1.9 g, an LIVER (6 h) of 8.9 g and an A/G (6 h) of 1.2. For the same compound, the ALP (6 h) was 1449.6 IU/L, the ALT (6 h) was 39.4 IU/L and the AST (6 h) was 74.8 IU/L. It also gave a BUN (6 h) of 10.6 mg/dL, a CRE (6 h) of 0.2 mg/dL and a Ca (6 h) of 10.6 mg/dL. It also gave a Cl (6 h) of 108.4 meq/L, a DBIL (6 h) of 0.01 mg/dL and a GLC (6 h) of 181.8 mg/dL. It also gave an IP (6 h) of 9 mg/dL, a K (6 h) of 4.8 meq/L and an LDH (6 h) of 253.6 IU/L. The Na (6 h) was 140.8 meq/L, the PL (6 h) was 137.4 mg/dL and the RALB (6 h) was 3 g/dL. It also gave a TBIL (6 h) of 0.008 mg/dL, a TC (6 h) of 72.2 mg/dL and a TG (6 h) of 61.6 mg/dL. It also gave a TP (6 h) of 5.4 g/dL, a gamma-GTP (6 h) of 1 IU/L and a TERMINAL_BW (9 h) of 208.5 g. It also gave an APTT (9 h) of 21.5 s, a Bas (9 h) of 0% and an Eos (9 h) of 1%. It also gave a Fbg (9 h) of 308.2 mg/dL, a Hb (9 h) of 13.3 g/dL and a Ht (9 h) of 38.7%. The Lym (9 h) was 72%, the MCH (9 h) was 21.2 pg and the MCHC (9 h) was 34.5%. It also gave an MCV (9 h) of 61.4 fL, a Mono (9 h) of 2.4% and a Neu (9 h) of 23.8%. The PT (9 h) was 15.9 s, the Plat (9 h) was 118.6 x10_4/uL and the RBC (9 h) was 631.2 x10_4/ul. It also gave a Ret (9 h) of 8.4%, a WBC (9 h) of 93 x10_2/uL and a KIDNEY_L (9 h) of 1 g. For the same compound, the KIDNEY_R (9 h) was 1 g, the KIDNEY_TOTAL (9 h) was 1.9 g and the LIVER (9 h) was 8.5 g. For the same compound, the A/G (9 h) was 1.3, the ALP (9 h) was 1409.6 IU/L and the ALT (9 h) was 38.8 IU/L. For the same compound, the AST (9 h) was 70.2 IU/L, the BUN (9 h) was 11.4 mg/dL and the CRE (9 h) was 0.2 mg/dL. It also gave a Ca (9 h) of 10.5 mg/dL, a Cl (9 h) of 107.8 meq/L and a DBIL (9 h) of 0.008 mg/dL. It also gave a GLC (9 h) of 181.8 mg/dL, an IP (9 h) of 9.7 mg/dL and a K (9 h) of 4.3 meq/L. It also gave an LDH (9 h) of 240.2 IU/L, a Na (9 h) of 141.8 meq/L and a PL (9 h) of 135 mg/dL. The RALB (9 h) was 3.1 g/dL, the TBIL (9 h) was 0.026 mg/dL and the TC (9 h) was 75.6 mg/dL. For the same compound, the TG (9 h) was 47.4 mg/dL, the TP (9 h) was 5.6 g/dL and the gamma-GTP (9 h) was 1 IU/L. It also gave a TERMINAL_BW (24 h) of 221.8 g, an APTT (24 h) of 21.2 s and a Bas (24 h) of 0%. For the same compound, the Eos (24 h) was 0.8%, the Fbg (24 h) was 313.8 mg/dL and the Hb (24 h) was 13.5 g/dL. For the same compound, the Ht (24 h) was 38.6%, the Lym (24 h) was 79.6% and the MCH (24 h) was 21.3 pg. For the same compound, the MCHC (24 h) was 34.9%, the MCV (24 h) was 61.2 fL and the Mono (24 h) was 2%. The Neu (24 h) was 17.4%, the PT (24 h) was 15.8 s and the Plat (24 h) was 121.2 x10_4/uL. The RBC (24 h) was 632.2 x10_4/ul, the Ret (24 h) was 7.7% and the WBC (24 h) was 96.5 x10_2/uL. The KIDNEY_L (24 h) was 1 g, the KIDNEY_R (24 h) was 1 g and the KIDNEY_TOTAL (24 h) was 2 g. The LIVER (24 h) was 10.8 g, the A/G (24 h) was 1.2 and the ALP (24 h) was 1617.2 IU/L. For the same compound, the ALT (24 h) was 43.6 IU/L, the AST (24 h) was 70.8 IU/L and the BUN (24 h) was 17.2 mg/dL. It also gave a CRE (24 h) of 0.2 mg/dL, a Ca (24 h) of 11.3 mg/dL and a Cl (24 h) of 106 meq/L. It also gave a DBIL (24 h) of 0 mg/dL, a GLC (24 h) of 179.4 mg/dL and an IP (24 h) of 7.4 mg/dL. The K (24 h) was 4.3 meq/L, the LDH (24 h) was 247.2 IU/L and the Na (24 h) was 141.8 meq/L. The PL (24 h) was 163.2 mg/dL, the RALB (24 h) was 3.2 g/dL and the TBIL (24 h) was 0.006 mg/dL. The TC (24 h) was 81.6 mg/dL, the TG (24 h) was 178.8 mg/dL and the TP (24 h) was 5.9 g/dL. It also gave a gamma-GTP (24 h) of 1.4 IU/L.
